Assay results reported in ChEMBL document CHEMBL1124516, “Synthesis of 2,3-diaziridinyl-1,4-naphthoquinone sulfonate derivatives as potential antineoplastic agents” (1989).

What was measured:
[1] = tested on: Mus musculus; assay: Average change in weight in mice bearing the B16 Melanoma, when compound(10 mg/kg) was administered intraperitoneally beginning 24 hr after tumor implantation, daily once for 6 consecutive days.; type: functional
[2] = tested on: L1210; assay: Number L1210 (murine leukemia) inoculated mice surviving for >50 days following 25 mg/kg i.p.; type: functional, Mus musculus; details: route intraperitoneal
[3] = tested on: Mus musculus; assay: Average change in weight in mice bearing the B16 Melanoma, when compound (20 mg/kg) was administered beginning 24 hr after tumor implantation, daily once for 6 consecutive days.; type: functional
[4] = tested on: Mus musculus; assay: The ratio of the survival time of treated to control animals x 100 in mice bearing L1210 Leukemia, when compound (10 mg/kg) was administered intraperitoneally; type: functional
[5] = tested on: Mus musculus; assay: Number of mice survived for a period greater than 50 days when a dose of 20 mg/Kg is administered intraperitoneally; tested in 5 mice; type: functional
[6] = tested on: Mus musculus; assay: The ratio of the survival time of treated to control animals x 100 in mice bearing B16 Melanoma, when compound (15 mg/kg) was administered intraperitoneally; type: functional
[7] = tested on: Mus musculus; assay: The ratio of the survival time of treated to control animals x 100 in mice bearing B16 Melanoma, when compound (5 mg/kg) was administered intraperitoneally; type: functional
[8] = tested on: Mus musculus; assay: The ratio of the survival time of treated to control animals x 100 in mice bearing L1210 Leukemia, when compound (15 mg/kg) was administered intraperitoneally; type: functional
[9] = tested on: Mus musculus; assay: Average change in weight in mice bearing the L1210 Leukemia, when compound(15 mg/kg) was administered beginning 24 h after tumor implantation, daily once for 6 consecutive days.; type: functional
[10] = tested on: Mus musculus; assay: The ratio of the survival time of treated to control animals x 100 in mice bearing L1210 leukemia, when compound (5 mg/kg) was administered intraperitoneally; type: functional
[11] = tested on: Mus musculus; assay: Number of mice surviving for a period greater than 50 days when a dose of 30 mg/Kg is administered intraperitoneally; tested in 5 mice; type: functional
[12] = tested on: Mus musculus; assay: Average change in weight in mice bearing the B16 Melanoma, when compound (15 mg/kg) was administered beginning 24 h after tumor implantation, daily once for 6 consecutive days.; type: functional
[13] = tested on: Mus musculus; assay: The ratio of the survival time of treated to control animals x 100 in mice bearing B16 Melanoma, when compound (20 mg/kg) was administered intraperitoneally; type: functional
[14] = tested on: Mus musculus; assay: Average change in weight in mice bearing the L1210 Leukemia, when compound (10 mg/kg) was administered beginning 24 hr after tumor implantation, daily once for 6 consecutive days.; type: functional
[15] = tested on: Mus musculus; assay: Average change in weight in mice bearing the L1210 Leukemia, when compound (5 mg/kg) was administered beginning 24 hr after tumor implantation, daily once for 6 consecutive days.; type: functional
[16] = tested on: Mus musculus; assay: Average change in weight in mice bearing the B16 Melanoma, when compound(150 mg/kg) was administered beginning 24 hr after tumor implantation, daily once for 6 consecutive days.; type: functional
[17] = tested on: Mus musculus; assay: Average change in weight in mice bearing the B16 Melanoma, when compound(100 mg/kg) was administered beginning 24 hr after tumor implantation, daily once for 6 consecutive days.; type: functional
[18] = tested on: L1210; assay: Percentage survival time of L1210 (murine leukemia) inoculated mice following 25 mg/kg i.p.; type: functional, Mus musculus; details: route intraperitoneal
[19] = tested on: Mus musculus; assay: The ratio of the survival time of treated to control animals x 100 in mice bearing B16 Melanoma, when compound (150 mg/kg) was administered intraperitoneally; type: functional
[20] = tested on: Mus musculus; assay: Number of mice survived for a period of greater than 50 days when a dose of 25 mg/Kg is administered intraperitoneally; tested in 10 mice; type: functional
[21] = tested on: Mus musculus; assay: Survival of mice bearing B16 melanoma cells greater than 50 days when treated with a dose of 100 mg/Kg administered intraperitoneally; tested in 5 mice; type: functional
[22] = tested on: Mus musculus; assay: Average change in weight in mice bearing the B16 Melanoma, when compound(50 mg/kg) was administered intraperitoneally beginning 24 hr after tumor implantation, daily once for 6 consecutive days.; type: functional
[23] = tested on: Mus musculus; assay: Survival of mice bearing B16 melanoma cells greater than 50 days when treated with a dose of 50 mg/Kg administered intraperitoneally; tested in 5 mice; type: functional
[24] = tested on: L1210; assay: Percentage survival time of L1210 (murine leukemia) inoculated mice following 20 mg/kg i.p.; type: functional, Mus musculus; details: route intraperitoneal
[25] = tested on: Mus musculus; assay: Survival of mice bearing B16 melanoma cells greater than 50 days when treated with a dose of 150 mg/Kg administered intraperitoneally; tested in 5 mice; type: functional
[26] = tested on: Mus musculus; assay: Number of mice survived for a period of greater than 50 days when a dose of 20 mg/Kg is administered intraperitoneally; tested in 10 mice; type: functional
[27] = tested on: Mus musculus; assay: The ratio of the survival time of treated to control animals x 100 in mice bearing B16 Melanoma, when compound (100 mg/kg) was administered intraperitoneally; type: functional
[28] = tested on: Mus musculus; assay: Average change in weight in mice bearing the L1210 Leukemia, when compound (25 mg/kg) was administered once daily beginning 24 hr after tumor implantation, for 6 consecutive days.; type: functional
[29] = tested on: L1210; assay: Percentage survival time of L1210 (murine leukemia) inoculated mice following 30 mg/kg i.p.; type: functional, Mus musculus; details: route intraperitoneal
[30] = tested on: Mus musculus; assay: The ratio of the survival time of treated to control animals x 100 in mice bearing B16 Melanoma, when compound (50 mg/kg) was administered intraperitoneally; type: functional
[31] = tested on: Mus musculus; assay: Number of mice survived for a period of greater than 50 days when a dose of 30 mg/Kg is administered intraperitoneally; tested in 10 mice; type: functional
[32] = tested on: Mus musculus; assay: Average change in weight in mice bearing the L1210 Leukemia, when compound (20 mg/kg) was administered once daily beginning 24 hr after tumor implantation, for 6 consecutive days.; type: functional
[33] = tested on: Mus musculus; assay: Average change in weight in mice bearing the L1210 Leukemia, when compound(30 mg/kg) was administered once daily beginning 24 hr after tumor implantation, for 6 consecutive days.; type: functional
[34] = tested on: Mus musculus; assay: Average change in weight in mice bearing the L1210 Leukemia, when compound (15 mg/kg) was administered beginning 24 hr after tumor implantation, daily once for 6 consecutive days.; type: functional
[35] = tested on: Mus musculus; assay: Number of mice survived for a period of greater than 50 days when a dose of 10 mg/Kg is administered intraperitoneally; tested in 5 mice; type: functional
[36] = tested on: Mus musculus; assay: Number of mice survived for a period of greater than 50 days when a dose of 15 mg/Kg is administered intraperitoneally; tested in 5 mice; type: functional
[37] = tested on: Mus musculus; assay: Number of mice survived for a period of greater than 50 days when a dose of 5 mg/Kg is administered intraperitoneally; tested in 5 mice; type: functional
[38] = tested on: Mus musculus; assay: Number of mice survived for a period of greater than 50 days when a dose of 25 mg/Kg is administered intraperitoneally; tested in 4 mice; type: functional
[39] = tested on: Mus musculus; assay: Number of mice survived for a period of greater than 50 days when a dose of 10 mg/kg is administered intraperitoneally; tested in 5 mice; type: functional; details: route intraperitoneal
[40] = tested on: Mus musculus; assay: Number of mice survived for a period of greater than 50 days when a dose of 15 mg/kg is administered intraperitoneally; tested in 5 mice; type: functional; details: route intraperitoneal
[41] = tested on: Mus musculus; assay: Average change in weight in mice bearing the B16 Melanoma, when compound(3 mg/kg) was administered beginning 24 hr after tumor implantation, daily once for 6 consecutive days.; type: functional
[42] = tested on: Mus musculus; assay: The ratio of the survival time of treated to control animals x 100 in mice bearing L1210 leukemia, when compound (3 mg/kg) was administered intraperitoneally; type: functional
[43] = tested on: Mus musculus; assay: Survival of mice bearing B16 melanoma cells greater than 50 days when treated with a dose of 3 mg/Kg administered intraperitoneally; tested in 5 mice; type: functional
[44] = tested on: Mus musculus; assay: Number of mice survived for a period of greater than 50 days when a dose of 3 mg/Kg is administered intraperitoneally; tested in 5 mice; type: functional
[45] = tested on: Mus musculus; assay: Average change in weight in mice bearing the L1210 Leukemia, when compound (3 mg/kg) was administered beginning 24 hr after tumor implantation, daily once for 6 consecutive days.; type: functional
[46] = tested on: Mus musculus; assay: The ratio of the survival time of treated to control animals x 100 in mice bearing B16 Melanoma, when compound (3 mg/kg) was administered intraperitoneally; type: functional

CS(=O)(=O)Oc1cccc2c1C(=O)C(N1CC1)=C(N1CC1)C2=O
Average weight [1]: -3.8%
Survivals [2]: 4
Average weight [3]: -8.1%
Activity [4]: 185
Survivals [5]: 0
Activity [6]: 137
Activity [7]: 125
Activity [8]: 295
Average weight [9]: -10%
Activity [10]: 130
Survivals [11]: 2
Average weight [12]: -6.4%
Activity [13]: 153
Average weight [14]: -7.1%
Average weight [15]: 3.3%

Cc1ccc(S(=O)(=O)Oc2cccc3c2C(=O)C(N2CC2)=C(N2CC2)C3=O)cc1
Average change in body weight [16]: -9.8%
Average change in body weight [17]: -1.9%
Activity [18]: 490
Activity [19]: 141
Survivals [20]: 9
Survivals [21]: 0
Average body weight change [22]: 4.5%
Survivals [23]: 0
Activity [24]: 155
Survivals [25]: 0
Survivals [26]: 7
Activity [27]: 153
Average body weight change [28]: -3.5%
Activity [29]: 248
Activity [30]: 144
Survivals [31]: 7
Average change in body weight [32]: -2.2%
Average change in body weight [33]: -7.4%

O=C1C(N2CC2)=C(N2CC2)C(=O)c2c(O)cccc21
Activity [4]: 96
Average weight [34]: -0.8%
Survivals [35]: 0
Activity [8]: 104
Survivals [36]: 0
Activity [10]: 114
Survivals [37]: 0
Average weight [14]: -3.2%
Average weight [15]: 6.3%

COc1ccc(S(=O)(=O)Oc2cccc3c2C(=O)C(N2CC2)=C(N2CC2)C3=O)cc1
Average change in body weight [16]: -15.2%
Average change in body weight [17]: -12.4%
Activity [18]: 222
Activity [19]: 165
Survivals [5]: 0
Survivals [21]: 0
Average body weight change [22]: -4.7%
Survivals [23]: 0
Activity [24]: 175
Survivals [25]: 0
Survivals [38]: 1
Activity [27]: 154
Survivals [11]: 3
Average body weight change [28]: -2.4%
Activity [29]: 193
Activity [30]: 132
Average change in body weight [32]: -0.1%
Average change in body weight [33]: -1.3%

O=C1C(N2CC2)=CC(=O)c2c(O)cccc21
Survival [39]: 0
Activity [4]: 94
Average weight [34]: 2.1%
Activity [8]: 90
Survival [40]: 0
Activity [10]: 231
Survival [37]: 0
Average weight [14]: 5.1%
Average weight [15]: 12.7%

O=C1C(N2CC2)=C(N2CC2)C(=O)c2c(OS(=O)(=O)c3ccccc3)cccc21
Average change in body weight [16]: -13.5%
Survivals [2]: 5
Average change in body weight [17]: -12.3%
Activity [19]: 148
Survivals [5]: 5
Survivals [21]: 0
Average body weight change [22]: -1.3%
Survivals [23]: 0
Survivals [25]: 0
Activity [27]: 180
Survivals [11]: 4
Average body weight change [28]: -8.3%
Activity [29]: 359
Activity [30]: 156
Average change in body weight [32]: -6.2%
Average change in body weight [33]: -7%

O=C1C(N2CC2)=C(N2CC2)C(=O)c2c(OS(=O)(=O)c3ccc(Cl)cc3)cccc21
Average change in body weight [16]: -3.2%
Survivals [2]: 0
Average change in body weight [17]: -2.5%
Activity [18]: 200
Activity [19]: 178
Survivals [5]: 0
Survivals [21]: 0
Average body weight change [22]: 1.1%
Survivals [23]: 0
Activity [24]: 161
Survivals [25]: 0
Activity [27]: 153
Survivals [11]: 3
Average body weight change [28]: 1.7%
Activity [29]: 167
Activity [30]: 143
Average change in body weight [32]: 4.2%
Average change in body weight [33]: -2.7%

CCOC(=O)NC1=C(N2CC2)C(=O)C(NC(=O)OCC)=C(N2CC2)C1=O [DIAZIQUONE]
Average weight [41]: -13.8%
Activity [42]: 231
Survivals [43]: 0
Survivals [44]: 0
Average weight [45]: -11.7%
Activity [46]: 147
